Test results published in US12552783B2, “Modulators of proteolysis and associated methods of use” (Arvinas Operations, Inc., priority 2018, dated 2026).

Molecular target: KRas (Homo sapiens, UniProt P01116, G12C)
Assay: KRas degradation in NCI-H2030 cells by Western blot, normalized to GAPDH (data of Table 14)
Format: cell-based
Design: host or cells: NCI-H2030
Settings: for Dmax: NCI-H2030
Summary of the method: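 After a day without serum, the G12C-homozygous cells received each compound at 0.3, 1 and 3 μM, with VHL-based degraders left for 24 h and other compounds for 72 h. DC50 is the concentration giving half-maximal degradation and DMax the maximal degradation, both taken from KRas levels normalized to GAPDH.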

Row | SMILES | Percent Degradation at Indicated Concentration (μM) (H2030, 0.3 μM) | Percent Degradation at Indicated Concentration (μM) (H2030, 1 μM) | Percent Degradation at Indicated Concentration (μM) (H2030, 3 μM) | Dmax | Percent Degradation at Indicated Concentration (μM) (H2030 cells, 0.3 μM) | Percent Degradation at Indicated Concentration (μM) (H2030 cells, 1 μM) | Percent Degradation at Indicated Concentration (μM) (H2030 cells, 3 μM)
1 | C=CC(=O)N1CCN(c2nc(NCCC(=O)N(C)CCOCCOc3ccc(-c4csc([C@@H]5CCCN5C(=O)[C@@H](NC(=O)[C@H](C)NC)C5CCCCC5)n4)c4ccccc34)nc3c(F)c(-c4cc(O)cc5ccccc45)c(Cl)cc23)CC1 [compound 271, 3-((4-(4-acryloylpiperazin-1-yl)-6-chloro-8-fluoro-7-(3-hydroxynaphthalen-1-yl)quinazolin-2-yl)amino)-N-(2-(2-((4-(2-((S)-1-((S)-2-cyclohexyl-2-((S)-2-(methylamino)propan-amido)acetyl)pyrrolidin-2-yl)thiazol-4-yl)naphthalen-1-yl)oxy)ethoxy)ethyl)-N-methylpropanamide] | C (Percent Degradation: C ≤ 35) | C (Percent Degradation: C ≤ 35) | C (Percent Degradation: C ≤ 35) | ≤ 35% |  |  | 
2 | C=CC(=O)N1CCN(c2nc(NCCC(=O)N(C)CCNc3cccc4c3C(=O)N(C3CCC(=O)NC3=O)C4=O)nc3c(F)c(-c4c(O)cccc4F)c(Cl)cc23)CC1 [compound 107, 3-(((S)-4-(4-acryloylpiperazin-1-yl)-6-chloro-8-fluoro-7-(2-fluoro-6-hydroxyphenyl)quinazolin-2-yl)amino)-N-(2-((2-(2,6-dioxopiperidin-3-yl)-1,3-dioxoisoindolin-4-yl)amino)ethyl)-N-methylpropanamide] |  |  | C (Percent Degradation: C ≤ 35) |  |  |  | 
3 | Cc1ncsc1-c1ccc([C@H](C)NC(=O)[C@@H]2C[C@@H](O)CN2C(=O)[C@@H](NC(=O)COCCOCCN(C)C(=O)CCNc2nc(N3CCN(C(N)=O)CC3)c3cc(Cl)c(-c4c(O)cccc4F)c(F)c3n2)C(C)(C)C)cc1 (atropisomer, axis not shown) [compound 227, 4-((S)-6-chloro-8-fluoro-7-(2-fluoro-6-hydroxyphenyl)-2-(((S)-14-((2S,4R)-4-hydroxy-2-(((S)-1-(4-(4-methylthiazol-5-yl)phenyl)ethyl)carbamoyl)pyrrolidine-1-carbonyl)-4,15,15-trimethyl-3,12-dioxo-7,10-dioxa-4,13-diazahexadecyl)amino)quinazolin-4-yl)piperazine-1-carboxamide] | C (Percent Degradation: C ≤ 35) | C (Percent Degradation: C ≤ 35) | C (Percent Degradation: C ≤ 35) | ≤ 35% |  |  | 
4 | CC(=O)N1CCN(c2nc(NCCC(=O)N(C)CCOCCOCCOCCOCCOCC(=O)N[C@H](C(=O)N3C[C@H](O)C[C@H]3C(=O)N[C@@H](C)c3ccc(-c4scnc4C)cc3)C(C)(C)C)nc3c(F)c(-c4cc(O)cc5ccccc45)c(Cl)cc23)CC1 [compound 204, (2S,4R)-1-((2S)-24-((4-(4-acetylpiperazin-1-yl)-6-chloro-8-fluoro-7-(3-hydroxynaphthalen-1-yl)quinazolin-2-yl)amino)-2-(tert-butyl)-21-methyl-4,22-dioxo-6,9,12,15,18-pentaoxa-3,21-diazatetracosanoyl)-4-hydroxy-N-((S)-1-(4-(4-methylthiazol-5-yl)phenyl)ethyl)pyrrolidine-2-carboxamide] | C (Percent Degradation: C ≤ 35) | C (Percent Degradation: C ≤ 35) | C (Percent Degradation: C ≤ 35) | ≤ 35% |  |  | 
5 | C=CC(=O)N1CCN(c2nc(Nc3ccc(OCCOCCOCCOCC(=O)N[C@H](C(=O)N4C[C@H](O)C[C@H]4C(=O)N[C@@H](C)c4ccc(-c5scnc5C)cc4)C(C)(C)C)cc3)nc3c(F)c(-c4cc(O)cc5ccccc45)c(Cl)cc23)CC1 [compound 483, (2S,4R)-1-((2S)-14-(4-((4-(4-acryloylpiperazin-1-yl)-6-chloro-8-fluoro-7-(3-hydroxynaphthalen-1-yl)quinazolin-2-yl)amino)phenoxy)-2-(tert-butyl)-4-oxo-6,9,12-trioxa-3-azatetradecanoyl)-4-hydroxy-N-((S)-1-(4-(4-methylthiazol-5-yl)phenyl)ethyl)pyrrolidine-2-carboxamide] | C (Percent Degradation: C ≤ 35) | C (Percent Degradation: C ≤ 35) | C (Percent Degradation: C ≤ 35) | ≤ 35% |  |  | 
6 | COc1cc(-c2scnc2C)ccc1[C@H](C)NC(=O)[C@@H]1C[C@@H](O)CN1C(=O)[C@@H](c1cc(OCCOCCOCCOCCOCCN(C)C(=O)CCNc2nc(N3CCN(C(C)=O)CC3)c3cc(Cl)c(-c4cc(O)cc5ccccc45)c(F)c3n2)no1)C(C)C [compound 391, (2S,4R)-1-((2R)-2-(3-((18-((4-(4-acetylpiperazin-1-yl)-6-chloro-8-fluoro-7-(3-hydroxynaphthalen-1-yl)quinazolin-2-yl)amino)-15-methyl-16-oxo-3,6,9,12-tetraoxa-15-azaoctadecyl)oxy)isoxazol-5-yl)-3-methylbutanoyl)-4-hydroxy-N-((S)-1-(2-methoxy-4-(4-methylthiazol-5-yl)phenyl)ethyl)pyrrolidine-2-carboxamide] | C (Percent Degradation: C ≤ 35) | C (Percent Degradation: C ≤ 35) | C (Percent Degradation: C ≤ 35) | ≤ 35% |  |  | 
7 | C=CC(=O)N1CCN(c2nc(O[C@H](C)CN3CCC(OCCOCCOCCOCCNc4cccc5c4C(=O)N(C4CCC(=O)NC4=O)C5=O)CC3)nc3c2CCN(c2cc(O)cc4ccccc24)C3)CC1 (stereo partly shown) [compound 414] |  |  |  |  | C (Percent Degradation: C ≤ 35) | C (Percent Degradation: C ≤ 35) | C (Percent Degradation: C ≤ 35)
8 | CN(C)C(=O)CCNc1nc(N2CCN(C(=O)/C=C/CCOCCOc3ccc4c(c3)C(=O)N(C3CCC(=O)NC3=O)C4=O)CC2)c2cc(Cl)c(-c3cc(O)cc4ccccc34)c(F)c2n1 (stereo not shown) [compound 172, (E)-3-((6-chloro-4-(4-(5-(2-((2-(2,6-dioxopiperidin-3-yl)-1,3-dioxoisoindolin-5-yl)oxy)ethoxy)pent-2-enoyl)piperazin-1-yl)-8-fluoro-7-(3-hydroxynaphthalen-1-yl)quinazolin-2-yl)amino)-N,N-dimethylpropanamide] | C (Percent Degradation: C ≤ 35) | C (Percent Degradation: C ≤ 35) | C (Percent Degradation: C ≤ 35) | ≤ 35% |  |  | 
9 | C=CC(=O)N1CCN(c2nc(O[C@H](C)CN3CCC(OCCOCCOCC(=O)N[C@H](C(=O)N4C[C@H](O)C[C@H]4C(=O)N[C@@H](C)c4ccc(-c5scnc5C)cc4)C(C)(C)C)CC3)nc3c2CCN(c2cc(O)cc4ccccc24)C3)CC1 [compound 407, (2S,4R)-1-((S)-2-(2-(2-(2-((1-((R)-2-((4-(4-acryloylpiperazin-1-yl)-7-(3-hydroxynaphthalen-1-yl)-5,6,7,8-tetrahydropyrido[3,4-d]pyrimidin-2-yl)oxy)propyl)piperidin-4-yl)oxy)ethoxy)ethoxy)acetamido)-3,3-dimethylbutanoyl)-4-hydroxy-N-((S)-1-(4-(4-methylthiazol-5-yl)phenyl)ethyl)pyrrolidine-2-carboxamide] |  |  |  |  | C (Percent Degradation: C ≤ 35) | C (Percent Degradation: C ≤ 35) | C (Percent Degradation: C ≤ 35)
10 | Cc1ncsc1-c1ccc([C@H](C)NC(=O)[C@@H]2C[C@@H](O)CN2C(=O)[C@@H](NC(=O)COCCOCCN(C)C(=O)CCNc2nc(N3CCN(C(=O)C(O)O)CC3)c3cc(Cl)c(-c4c(O)cccc4F)c(F)c3n2)C(C)(C)C)cc1 (atropisomer, axis not shown) [compound 236, (2S,4R)-1-((S)-2-(tert-butyl)-15-(((S)-6-chloro-4-(4-(2,2-dihydroxyacetyl)piperazin-1-yl)-8-fluoro-7-(2-fluoro-6-hydroxyphenyl)quinazolin-2-yl)amino)-12-methyl-4,13-dioxo-6,9-dioxa-3,12-diazapentadecanoyl)-4-hydroxy-N-((S)-1-(4-(4-methylthiazol-5-yl)phenyl)ethyl)pyrrolidine-2-carboxamide] |  |  | C (Percent Degradation: C ≤ 35) |  |  |  | 
11 | C=CC(=O)N1CCN(c2nc(NCCC(=O)N(C)CCOCCOc3ccc(-c4csc([C@@H]5CCCN5C(=O)[C@@H](NC(=O)[C@H](C)NC)C5CCCCC5)n4)c4ccccc34)nc3c(F)c(-c4c(O)cccc4F)c(Cl)cc23)CC1 (atropisomer, axis not shown) [compound 276, 3-((4-(4-acryloylpiperazin-1-yl)-6-chloro-8-fluoro-7-((S)-2-fluoro-6-hydroxyphenyl)quinazolin-2-yl)amino)-N-(2-(2-((4-(2-((S)-1-((S)-2-cyclohexyl-2-((S)-2-(methylamino)propan-amido)acetyl)pyrrolidin-2-yl)thiazol-4-yl)naphthalen-1-yl)oxy)ethoxy)ethyl)-N-methylpropanamide] | C (Percent Degradation: C ≤ 35) | C (Percent Degradation: C ≤ 35) | C (Percent Degradation: C ≤ 35) | ≤ 35% |  |  | 
12 | C=CC(=O)N1CCN(c2nc(NCCC(=O)N(C)CCOCCOCCOCCOCCOCC(=O)N[C@H](C(=O)N3C[C@H](O)C[C@H]3C(=O)N[C@@H](C)c3ccc(-c4scnc4C)cc3)C(C)(C)C)nc3c(F)c(-c4c(O)cccc4F)c(Cl)cc23)CC1 (atropisomer, axis not shown) [compound 213, (2S,4R)-1-((S)-24-(((S)-4-(4-acryloylpiperazin-1-yl)-6-chloro-8-fluoro-7-(2-fluoro-6-hydroxyphenyl)quinazolin-2-yl)amino)-2-(tert-butyl)-21-methyl-4,22-dioxo-6,9,12,15,18-pentaoxa-3,21-diazatetracosanoyl)-4-hydroxy-N-((S)-1-(4-(4-methylthiazol-5-yl)phenyl)ethyl)pyrrolidine-2-carboxamide] |  |  | C (Percent Degradation: C ≤ 35) |  |  |  | 
